Data set [1] has as its target T1, Solute carrier organic anion transporter family member 1B1 (Homo sapiens, UniProt Q9Y6L6).
T1 sequence (Q9Y6L6 whole entry): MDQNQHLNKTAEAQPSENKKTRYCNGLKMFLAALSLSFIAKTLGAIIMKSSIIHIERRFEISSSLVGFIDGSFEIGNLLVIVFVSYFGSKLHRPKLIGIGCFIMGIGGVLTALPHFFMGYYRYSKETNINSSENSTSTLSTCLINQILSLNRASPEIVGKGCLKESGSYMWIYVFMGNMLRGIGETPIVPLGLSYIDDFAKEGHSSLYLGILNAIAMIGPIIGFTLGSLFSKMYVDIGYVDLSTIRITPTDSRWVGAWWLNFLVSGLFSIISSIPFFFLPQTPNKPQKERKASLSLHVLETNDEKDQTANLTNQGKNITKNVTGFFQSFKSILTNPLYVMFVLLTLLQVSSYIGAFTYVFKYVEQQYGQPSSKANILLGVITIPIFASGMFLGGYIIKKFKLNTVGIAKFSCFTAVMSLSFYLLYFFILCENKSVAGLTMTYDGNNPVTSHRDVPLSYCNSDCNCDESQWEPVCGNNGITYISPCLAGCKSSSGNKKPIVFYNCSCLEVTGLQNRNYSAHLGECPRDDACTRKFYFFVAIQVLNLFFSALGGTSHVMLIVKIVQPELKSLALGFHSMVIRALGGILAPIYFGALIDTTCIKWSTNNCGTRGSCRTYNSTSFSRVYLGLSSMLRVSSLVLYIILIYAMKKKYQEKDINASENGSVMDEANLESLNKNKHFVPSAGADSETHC
The conditions noted are these: chinese hamster, cho, 10 µM.

The target of data set [2] is T2, Solute carrier organic anion transporter family member 1B3 (Homo sapiens, UniProt Q9NPD5).
T2 sequence (Q9NPD5 whole entry): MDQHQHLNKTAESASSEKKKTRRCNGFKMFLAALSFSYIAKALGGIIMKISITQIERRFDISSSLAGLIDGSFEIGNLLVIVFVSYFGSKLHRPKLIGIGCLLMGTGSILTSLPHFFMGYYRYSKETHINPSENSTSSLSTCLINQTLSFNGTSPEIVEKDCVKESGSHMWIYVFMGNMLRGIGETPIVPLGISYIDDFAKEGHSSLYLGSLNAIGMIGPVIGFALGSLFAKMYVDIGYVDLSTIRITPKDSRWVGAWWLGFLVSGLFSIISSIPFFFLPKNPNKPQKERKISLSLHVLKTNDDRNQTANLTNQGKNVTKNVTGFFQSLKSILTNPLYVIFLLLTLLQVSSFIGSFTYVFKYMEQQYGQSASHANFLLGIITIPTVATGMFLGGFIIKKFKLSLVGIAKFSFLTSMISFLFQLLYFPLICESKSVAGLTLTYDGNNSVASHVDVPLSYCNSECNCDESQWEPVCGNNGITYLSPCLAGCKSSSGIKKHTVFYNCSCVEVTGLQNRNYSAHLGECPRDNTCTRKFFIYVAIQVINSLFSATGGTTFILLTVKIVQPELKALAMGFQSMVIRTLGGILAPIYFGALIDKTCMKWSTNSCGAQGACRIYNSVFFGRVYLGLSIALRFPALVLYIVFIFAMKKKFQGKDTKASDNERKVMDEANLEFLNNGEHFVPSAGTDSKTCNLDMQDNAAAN
The conditions noted are these: chinese hamster, cho, 10 µM.

The record followed here is ChEMBL document CHEMBL3039007, “Structure-based identification of OATP1B1/3 inhibitors” (Mol Pharmacol, 2013).

In general, residual activity refers to the signal under treatment as a percentage of the control signal.

For `O=C(O[C@@H]1Cc2c(O)cc(O)cc2O[C@@H]1c1cc(O)c(=O)c2c(O)c(O)cc([C@H]3Oc4cc(O)cc(O)c4C[C@H]3O)c2c1)c1cc(O)c(O)c(O)c1` [THEAFLAVIN MONOGALLATES], the residual activity in data set [1] was 89.76%; in data set [2], 103.8%.
Consider `CCCCCC/C=C\CCCCCCCc1cccc(O)c1C(=O)O` [GINGKOLIC ACID], for which the residual activity in data set [1] worked out at 135.9%; in data set [2], 93.22%.
The matching figures for `COc1ccc(-c2coc3c(OC)c(OC)cc(O)c3c2=O)cc1` [ISOTECTORIGENIN, 7-METHYL ETHER]: 135.9% and 105%.
For `CCC1(C)CC(=O)NC1=O` (stereo not drawn) [ETHOSUXIMIDE], the results for the residual activity in data set [1] and in data set [2] were 137.5% and 102.9%, respectively.
Take `COc1cc([C@@H]2c3cc4c(cc3[C@@H](O[C@@H]3O[C@@H]5CO[C@@H](c6cccs6)O[C@H]5[C@H](O)[C@H]3O)[C@H]3COC(=O)[C@H]23)OCO4)cc(OC)c1O` [TENIPOSIDE]: the residual activity stood at 25.44% in data set [1] and 32.58% in data set [2].
As for `COc1ccc(C2C(=O)c3ccccc3C2=O)cc1` [ANISINDIONE], the figures for the residual activity in data set [1] and in data set [2] were 74.63% and 75.63%, respectively.
Turning to `C[C@H]1[C@H](C)CC[C@@]23CC[C@]4(C)[C@@](C=C[C@@H]5[C@@]6(C)CC[C@H](O)C(C)(C)[C@@H]6CC[C@]54C)(OC2=O)[C@H]13`, the residual activity in data set [1] is 114.4%; in data set [2], 98.51%.
On to `COC(=O)CC1C(C)(C)C(OC(C)=O)[C@@H]2[C@@H](OC(C)=O)[C@]34O[C@@]2(O)[C@]1(C)C3CC[C@]1(C)C4=CC(=O)O[C@H]1c1ccoc1` (stereo partly drawn) [XYLOCARPUS A], for which the residual activity in data set [1] was found to be 22.54%; in data set [2], 9.764%.
With `CC1=CC(=O)C(C(C)C)=CC1=O` [THYMOQUINONE], the values for the residual activity in data set [1] and in data set [2] were 126.4% and 98.24%, respectively.
The matching figures for `Cc1onc(-c2ccccc2Cl)c1C(=O)N[C@@H]1C(=O)N2[C@@H]1SC(C)(C)[C@@H]2C(=O)[O-].O.[Na+]` [CLOXACILLIN SODIUM]: 47.3% and 63.22%.
Consider `C=CC(N)CCC(=O)O` (stereo not drawn) [VIGABATRIN], for which the residual activity in data set [1] is given as 78.69%; in data set [2], 94.41%.
The like results for `CNCCC(Oc1ccc(C(F)(F)F)cc1)c1ccccc1` (stereo not drawn) [FLUOXETINE] were, in that order, 55.32% and 77.22%.
In the case of `C[C@H]1C(=O)CC[C@@H]2[C@]1(C)CC[C@H]1[C@@]2(C)CC[C@@]2(C)[C@@H]3CC(C)(C)CC[C@]3(C)CC[C@]12C` [FRIEDELINE], the values for the residual activity in data set [1] and in data set [2] were 112% and 90.31%, respectively.
With `CC(=O)[C@H]1CC[C@H]2[C@@H]3CCC4=CC(=O)CC[C@]4(C)[C@H]3CC[C@]12C` [PROGESTERONE], the residual activity was 52.43% in data set [1] and 92% in data set [2].
As to `COc1ccc(-c2coc3cc(O)ccc3c2=O)c(OC)c1` [2'-METHOXYFORMONETIN], the residual activity in data set [1] came to 74.56%; in data set [2], 83.66%.
Take `COc1ccc(C[C@H](N)C(=O)N[C@H]2[C@@H](O)[C@H](n3cnc4c(N(C)C)ncnc43)O[C@@H]2CO)cc1.Cl.Cl` [PUROMYCIN HYDROCHLORIDE]: the residual activity in data set [1] was 95.86%; in data set [2] it was 116.6%.
For `CC(=O)O[C@]1(C)CC[C@@]23C[C@H]1C(C)(C)[C@@H]2CC[C@H]3C` [CEDRYL ACETATE], the residual activity in data set [1] is recorded as 134%; in data set [2], 116.5%.
For `CCOC(N)=O`, the results for the residual activity in data set [1] and in data set [2] were 109.1% and 101.6%, respectively.
Take `O=C1OC(=O)C2C3CCC(O3)C12` (stereo not drawn): the residual activity was 106.4% in data set [1] and 93.17% in data set [2].
Consider `CCCCCCCC/C=C/CCCCCCCCOP(=O)([O-])OCC[N+](C)(C)C` [ELAIDYLPHOSPHOCHOLINE], for which the residual activity in data set [1] is given as 66.64%; in data set [2], 84.98%.
Consider `CCCN(CCC)C(=O)C(CCC(=O)O)NC(=O)c1ccccc1` (stereo not drawn) [PROGLUMIDE], for which the residual activity in data set [1] amounted to 105%; in data set [2] it was 104.8%.
The matching figures for `O=C(CCCCCCCCCCCCC1CCCC1)Nc1ccc(S(=O)(=O)c2ccc(NC(=O)CCCCCCCCCCCCC3CCCC3)cc2)cc1` [CHAULMOSULFONE]: 65.99% and 75.08%.
With `Cc1ncc(CNC(=O)N(CCCl)N=O)c(N)n1` [NIMUSTINE], the results for the residual activity in data set [1] and in data set [2] were 121.9% and 112%, respectively.
`COc1cc(OC)c2c(=O)c(-c3ccccc3)coc2c1` [5,7-DIMETHOXYISOFLAVONE]: the residual activity came to 99.46% in data set [1] and 104.7% in data set [2].
For `COC(=O)[C@]1(C)CC[C@]2(C)CC[C@]3(C)C4=CC=C5C(=CC(=O)C(O)=C5C)[C@]4(C)CC[C@@]3(C)[C@@H]2C1` [PRISTIMERIN], the residual activity in data set [1] was determined as 112.2%; in data set [2], 99.45%.
The like results for `CSc1nc(NC(C)C)nc(NC(C)C)n1` [PROMETRYN] were, in that order, 175.4% and 86.3%.
The like results for `Clc1ccc2c(c1)C(N1CCNCC1)=Nc1ccccc1O2` [AMOXAPINE] were, in that order, 115.8% and 101.5%.
The like results for `C=CCC1(C(C)CCC)C(=O)N=C([S-])NC1=O.[Na+]` (stereo not drawn) [THIAMYLAL SODIUM] were, in that order, 84.73% and 103.8%.
Consider `CCOC(=O)n1ccn(C)c1=S` [CARBIMAZOLE], for which the residual activity was 114.4% in data set [1] and 101.8% in data set [2].
For `COc1cc2c(cc1OC)C(=O)c1ccc(OC)c(OC)c1OCC(=O)C2` [HAEMATOXYLONE, TETRAMETHYL-], the residual activity in data set [1] is recorded as 141.3%; in data set [2] it was 90.54%.
The matching figures for `Cc1nc2ccccn2c(=O)c1CCN1CCC(C(=O)c2ccc(F)cc2)CC1` [PIRENPERONE]: 93.87% and 102.6%.
As for `CN(C)CCc1c[nH]c2ccc(CS(=O)(=O)N3CCCC3)cc12` [ALMOTRIPTAN], the residual activity in data set [1] is given as 95.85%; in data set [2], 94.33%.
Turning to `N=C1C=CC(=C(c2ccc(N)cc2)c2ccc(N)cc2)C=C1.N=C1C=CC(=C(c2ccc(N)cc2)c2ccc(N)cc2)C=C1.O.O.O=C(O)c1cc2ccccc2c(Cc2c(O)c(C(=O)O)cc3ccccc23)c1O` [PARAROSANILINE PAMOATE], the residual activity turned out to be 66.86% in data set [1] and 144.5% in data set [2].
Consider `Cc1nccc2c1[nH]c1cc(O)ccc12.Cl` [HARMOL HYDROCHLORIDE], for which the residual activity in data set [1] was 91.2%; in data set [2], 124.7%.
Take `COC(=O)COc1ccc(Cl)cc1Cl` [2,4-DICHLOROPHENOXYACETIC ACID, METHYL ESTER]: the residual activity in data set [1] came to 116.2%; in data set [2], 110%.
As to `CC(=O)Oc1cc(OC(C)=O)c2c(c1)O[C@H](c1ccc(OC(C)=O)c(OC(C)=O)c1)[C@@H](OC(C)=O)C2` [CATECHIN PENTAACETATE], the residual activity in data set [1] was 82.47%; in data set [2] it was 104.9%.
For the compound `COc1cc([S+](C)[O-])ccc1-c1nc2ncccc2[nH]1` (stereo not drawn) [SULMAZOLE], the residual activity was found to be 107.4% in data set [1] and 116.5% in data set [2].
Consider `Cc1nc2sccn2c(=O)c1CCN1CCC(=C(c2ccc(F)cc2)c2ccc(F)cc2)CC1` [RITANSERIN], for which the residual activity amounted to 96.72% in data set [1] and 101.7% in data set [2].
As to `O=[N+]([O-])O[C@H]1CO[C@H]2[C@@H]1OC[C@H]2O[N+](=O)[O-]` [ISOSORBIDE DINITRATE], the residual activity in data set [1] is listed as 86.27%; in data set [2] it was 114.2%.
